In EP1650209A1, “Griseusin derivatives and their use as antitumor agents” (Oncotest GmbH, priority 2004, dated 2006):
Values after ≈ are worked out from the molar mass of the structure shown.

Key:
Test in all cases: Clonogenic assay, colony formation of tumor stem cells from xenografts
Type in all cases: cell-based, human
GXF 251 = conditions: Stomach, xenograft GXF 251, colony formation
Experimental: (§1) Using various human cancer xenografts in vitro, the concentrations of compound B which inhibit formation of tumor colonies of tumor stem cells by 50% (IC50) and 70% (IC70) are determined in a clonogenic assay. Specifically, each solid tumor of bladder cancer (BXF 1036 and BXF 1299), cervical cancer (CEXF 633 and CEXF 773), colic cancer (CXF 1103, CXF 158, CXF 1729, CXF 264 and CXF 280), gastric cancer (GXF 251 and GXF 97), head and neck cancer (HNXF 536), liver cancer (LIXF 575), non small cell lung cancer comprising adeno, squamous epithelium and large cell carcinoma (LXFA 1012, LXFA 289, LXFA 297, LXFA 526, LXFA 592, LXFA 629, LXFA 677, LXFE 409, LXFL 1072, LXFL 430LX and LXFL 529), small cell lung cancer (LXFS 650), mammary cancer (MAXF 1162, MAXF 1384, MAXF 401, MAXF 449, MAXF 574, MAXF 583, MAXF 713 and MAXF 857), melanoma (MEXF 1341, MEXF 462, MEXF 535 and MEXF 989), ovary cancer (OVXF 899), pancreatic cancer (PAXF 546 and PAXF 736), prostate cancer (DU-145 and PC3M), pleuramesothelioma (PXF 1752), renal cancer (RXF 1220, RXF 1393, RXF 393, RXF 631 and RXF 944LX), and sarcoma (SXF 1301 and SXF 463) engrafted on RPMI nu/nu thymus aplastic nude mice were explanted, disaggregated by mincing and enzymatic digestion for 50 minutes using 125 U/mL DNAse I, 41 U/mL collagenase IV, 100 U/ml hyaluronidase III, and 1 U/mL dispase I, and passed through sieves of 200 µm and 50 µm mesh size and washed twice with sterile PBS-buffer to remove cell aggregated from single cells. The clonogenic assay was performed in a 24 multiwell format. Each of the resulting single cell suspensions was added at a density of 2·10^4 to 6·10^4 cells per well to 0.2 ml of Iscove's Modified Dulbecco's Medium (IMDM) containing 20% fetal calf serum and 0.01% gentamicin supplemented with 0.4% (w/v) agar, and plated onto a bottom layer consisting of the same culture medium containing 0.75% (w/v) agar. After 24 hours IMDM containing 20% fetal calf serum and 0.01 % gentamicin, together with a test compound, was added there to. Then, the plate was incubated at 37°C for 10 to 20 days in a humidified atmosphere of air containing 7.5% CO2. Within this period, in vitro tumor growth led to the formation of colonies with a diameter of > 50µm. Colony counts were performed with an automatic image analysis system (OMNICON 3600). 24 hours prior to evaluation, vital colonies were stained with a vital staining dye. Therefore, 100 µl of a sterile aqueous solution of 2-(4-iodophenyl)-3-(4-nitrophenyl)-5-phenyltetrazolium chloride (1 mg/ml) were added to each well of the plate, and plates were incubated for 24 hours at 37°C in a humidified atmosphere of air containing 7.5% CO2. Inhibition of colony formation was expressed as test versus untreated control (T/C-value [%]). IC50 and IC70 values were determined by plotting compound concentration versus cell viability. Table 3: Inhibition of Colony Formation of Tumor Stem Cells by griseusin derivative B

RXF 631 = conditions: Kidney, xenograft RXF 631, colony formation
Experimental: as §1

LXFE 409 = conditions: Lung, non small cell, xenograft LXFE 409, colony formation
Experimental: as §1

PXF 1752 = conditions: Pleuramesothelio, xenograft PXF 1752, colony formation
Experimental: as §1

MAXF 1162 = conditions: Breast, xenograft MAXF 1162, colony formation
Experimental: as §1

RXF 393 = conditions: Kidney, xenograft RXF 393, colony formation
Experimental: as §1

PAXF 736 = conditions: Pancreas, xenograft PAXF 736, colony formation
Experimental: as §1

BXF 1036 = conditions: Bladder, xenograft BXF 1036, colony formation
Experimental: as §1

LXFA 526 = conditions: Lung, non small cell, xenograft LXFA 526, colony formation
Experimental: as §1

MEXF 462 = conditions: Melanoma, xenograft MEXF 462, colony formation
Experimental: as §1

LXFL 1072 = conditions: Lung, non small cell, xenograft LXFL 1072, colony formation
Experimental: as §1

MAXF 449 = conditions: Breast, xenograft MAXF 449, colony formation
Experimental: as §1

CXF 280 = conditions: Colon, xenograft CXF 280, colony formation
Experimental: as §1

GXF 97 = conditions: Stomach, xenograft GXF 97, colony formation
Experimental: as §1

MAXF 1384 = conditions: Breast, xenograft MAXF 1384, colony formation
Experimental: as §1

RXF 1220 = conditions: Kidney, xenograft RXF 1220, colony formation
Experimental: as §1

CEXF 773 = conditions: Cervix, xenograft CEXF 773, colony formation
Experimental: as §1

HNXF 536 = conditions: Head and Neck, xenograft HNXF 536, colony formation
Experimental: as §1

IC50 (GXF 251): 0.333 µg/mL (≈ 0.832 µM)
IC50 (RXF 631): 0.517 µg/mL (≈ 1.29 µM)
IC50 (LXFE 409): 1.732 µg/mL (≈ 4.33 µM)
IC50 (PXF 1752): 0.811 µg/mL (≈ 2.03 µM)
IC50 (MAXF 1162): 0.182 µg/mL (≈ 0.455 µM)
IC50 (RXF 393): 0.150 µg/mL (≈ 0.375 µM)
IC50 (PAXF 736): 0.246 µg/mL (≈ 0.614 µM)
IC50 (BXF 1036): 1.743 µg/mL (≈ 4.35 µM)
IC50 (LXFA 526): 0.300 µg/mL (≈ 0.749 µM)
IC50 (MEXF 462): 1.666 µg/mL (≈ 4.16 µM)
IC50 (LXFL 1072): 0.252 µg/mL (≈ 0.629 µM)
IC50 (MAXF 449): 0.400 µg/mL (≈ 0.999 µM)
IC50 (CXF 280): 0.379 µg/mL (≈ 0.947 µM)
IC50 (GXF 97): 0.300 µg/mL (≈ 0.749 µM)
IC50 (MAXF 1384): 0.606 µg/mL (≈ 1.51 µM)
IC50 (RXF 1220): 0.782 µg/mL (≈ 1.95 µM)
IC50 (CEXF 773): 1.936 µg/mL (≈ 4.84 µM)
IC50 (HNXF 536): 0.350 µg/mL (≈ 0.874 µM)
SMILES: C[C@@H]1CC(=O)[C@@H](O)[C@]2(O1)O[C@@H]1CC(=O)O[C@@H]1C1=C2C(=O)c2c(O)cccc2C1=O [Compound B, 4'-dehydro-deacetylgriseusin A]
IC70 (GXF 251): 0.677 µg/mL (≈ 1.69 µM)
IC70 (RXF 631): 0.719 µg/mL (≈ 1.8 µM)
IC70 (LXFE 409): 2.249 µg/mL (≈ 5.62 µM)
IC70 (PXF 1752): 1.253 µg/mL (≈ 3.13 µM)
IC70 (MAXF 1162): 0.362 µg/mL (≈ 0.904 µM)
IC70 (RXF 393): 0.212 µg/mL (≈ 0.53 µM)
IC70 (PAXF 736): 0.452 µg/mL (≈ 1.13 µM)
IC70 (BXF 1036): 2.271 µg/mL (≈ 5.67 µM)
IC70 (LXFA 526): 0.512 µg/mL (≈ 1.28 µM)
IC70 (MEXF 462): 2.152 µg/mL (≈ 5.38 µM)
IC70 (LXFL 1072): 0.468 µg/mL (≈ 1.17 µM)
IC70 (MAXF 449): 0.648 µg/mL (≈ 1.62 µM)
IC70 (CXF 280): 0.609 µg/mL (≈ 1.52 µM)
IC70 (GXF 97): 0.495 µg/mL (≈ 1.24 µM)
IC70 (MAXF 1384): 0.750 µg/mL (≈ 1.87 µM)
IC70 (RXF 1220): 0.952 µg/mL (≈ 2.38 µM)
IC70 (CEXF 773): 2.333 µg/mL (≈ 5.83 µM)
IC70 (HNXF 536): 0.547 µg/mL (≈ 1.37 µM)
